Test results reported in US20260242340A1, “COMPOUNDS AND METHODS FOR TREATING PROTEIN AGGREGATION DISEASES” (ACELOT, INC., priority 2023, published 2026).

Experiments:
[1] = target: peptide fragment of TAR DNA-binding protein 43 (TDP-43) (Homo sapiens, UniProt Q13148); experiment: Ion-mobility mass spectrometry (IM-MS) of TDP-43 peptide oligomerization; assay type: biochemical; settings: approximately 4 hours after addition of compound to aggregated peptide sample; for 6mer/hexamer peak of TDP-43 peptide (IM-MS, FIG. 2): versus control
From the text: One of the assays used to determine the effectiveness of the compounds is Ion Mobility Mass Spectroscopy, or IM-MS. In this assay, a protein solution was fed into the IM-MS tube. At the entrance to the tube, an electric field ionized the proteins, propelling them into the body of the tube, where a constant electric field propelled them forward. Upon reaching the end of the tube, the ionized proteins were counted by a particle detector, which can also measure the mass/charge ratio and flight time of each particle.
Methods: IM-MS was utilized to monitor the oligomerization of a peptide fragment of TAR DNA-binding protein 43 (TDP-43) in the presence of compounds 1 and 2 using methods as described in Laos et al ACS Chem. Neuro. 2019, 10 (9), 4112-4123; and Biochemistry 2019, 59 (4), 499-508. The accumulation of TDP-43 aggregates in the central nervous system is a common feature of many neurodegenerative diseases, such as amyotrophic lateral sclerosis, frontotemporal dementia, Alzheimer's disease, and limbic predominant age-related TDP-43 encephalopathy. The ability of IM-MS to separate TDP-43 aggregate species of a specific [m]z+ (m=mass, z=charge) that contains different [n]z+ (n=number of TDP-43 peptide molecules aggregated together) by measuring the arrival time distributions (ATDs) yields oligomeric distribution spectrographs.
In FIG. 2, the number denoted at the top of each peak is the peptide aggregate size (e.g., 6=6 peptides aggregated together). The spectrograph designated as Control is the peptide form of TDP-43 without any protein aggregation disrupting compound added. Measurements were taken approximately 4 hours after addition of compound to aggregated peptide sample. […] The 6mer is the toxic oligomer that propagates disease and neuronal degeneration. FIG. 2 also discloses that the addition of compound 1 or compound 2 decreased the number of higher-order TDP-43 oligomers and increased the number of TDP-43 monomers and dimers.
We conducted two types of experiments. The first was a co-incubation experiment, where we added the compounds to a fresh solution of monomeric protein, and allowed the protein to aggregate (or, ideally, not aggregate) in the presence of the compound. The second experiment was a recovery experiment, where we added our compounds to a solution of pre-aggregated protein. Co-incubation experiments allowed us to determine if the compounds can prevent initial aggregation, while recovery experiments allowed us to determine if the compounds can break up existing aggregates.

[2] = target: T1, alpha-synuclein (Homo sapiens, UniProt P37840); experiment: Alpha-synuclein thioflavin T assay; assay type: biochemical; settings: 250 μM compound on pre-formed aggregates of 50 μM alpha-synuclein, 24 hours; 100% = alpha synuclein + DMSO
T1 construct: purchased Proteos RP-003
Description: Recombinant alpha-synuclein monomeric protein was procured from Proteos (catalog no. RP-003, 10 mg/ml or 700 μM concentration). Prior to aggregation, the protein was centrifuged at 10,000 rpm for 5 minutes to remove any pre-existing aggregates. The stock solution was then diluted to 50 μM concentration in filtered 1×PBS and allowed to aggregate with continuous shaking at 1000 rpm on a thermomixer for 96 hours at 37° C. After 96 hours, the ThT fluorescence was checked for the sample to confirm aggregate formation using ThT, a well-known amyloid marker dye. The ThT active aggregates were then used for high-throughput small molecule inhibitor screening. For screening small molecule disaggregators, 10 mM DMSO stock solutions of small molecules were diluted to 250 μM in the reaction mix containing 20 μM ThT and aggregates formed by 50 μM alpha-synuclein. As a positive/vehicle control, 100% DMSO stock was diluted to 2.5% to match the DMSO in the small molecule conditions. ThT fluorescence assay was performed for 24 hours with 3 replicates per sample in a 384 well plate (Corning low volume black/clear flat bottom) on a microplate reader (Molecular Devices SpectraMax iD5 or BioTek Agilent Synergy Neo2) using excitation wavelength of 440 nm and emission wavelength of 490 nm. The temperature was maintained at 37° C. and the plate was continuously shaken throughout the measurement. All data were plotted and analyzed in GraphPad Prism.

[3] = target: T2, TDP-43 cytosolic aggregates (TDP-43-tGFP-U2OS cell line) (Homo sapiens, UniProt Q13148); experiment: TDP-43 cytoplasmic aggregation assay; assay type: cell-based; settings: 10 μM compound; TDP-43-tGFP-U2OS cells, sodium arsenite; lower = more potent
T2 construct: expressed in transfected cells; host or cells: U2OS (recombinant, IPTG-inducible TDP-43 expression)
T2 sequence (Q13148 whole entry): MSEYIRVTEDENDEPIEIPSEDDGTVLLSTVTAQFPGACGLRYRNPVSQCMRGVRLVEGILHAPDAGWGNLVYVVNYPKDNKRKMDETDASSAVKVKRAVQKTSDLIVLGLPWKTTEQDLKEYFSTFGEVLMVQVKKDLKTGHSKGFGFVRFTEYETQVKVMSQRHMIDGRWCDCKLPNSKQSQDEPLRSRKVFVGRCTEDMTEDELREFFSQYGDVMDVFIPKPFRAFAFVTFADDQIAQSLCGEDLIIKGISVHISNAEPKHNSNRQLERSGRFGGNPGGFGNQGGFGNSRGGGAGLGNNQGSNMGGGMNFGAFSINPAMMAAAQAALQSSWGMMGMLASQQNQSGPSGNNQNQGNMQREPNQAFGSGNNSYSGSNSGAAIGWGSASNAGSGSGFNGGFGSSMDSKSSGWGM
Description: Recombinant TDP-43-tGFP-U2OS cell line was thawed (2×10^6 cells per T75) and was maintained in DMEM-F12 supplemented with 10% FBS at 37° C. in a humidified 5% CO2 atmosphere. Cells were plated in 96-well plates with a density of 10,000 cells (+/−2000 cells) per well. Cells were incubated with the test compounds and isopropyl β-D-1-thiogalactopyranoside (IPTG) 1 mM to induce TDP43 expression for 24 hours. The assays were carried out in triplicate. Cells were treated with 125-250 μM of sodium arsenite for 120 min and TDP-43 punctae formation was quantified in both cell cytoplasm and cell nucleus, in living cells. The nuclei were stained using Hoechst (0.5 μg/ml) and the fluorescence was measured using a Cell Insight High-Content Bioimager from Thermo Fisher. To detect the Hoechst, the filters used were 380/10 and 460/10 nm for excitation and emission, respectively, and to detect the TDP-43 punctae, the filters were 488/20 and 520/20 nm, respectively. The images were obtained with an objective of 20×. Cell quantification was performed delimitating the region of interest of the nuclei and after quantification the average of each triplicate was performed. For granule quantification the spot detector application from Cell Software delimitated 2 regions of interest, the nuclei and cytosol. This software quantified the average number of granules per nuclei and the average number of granules per cytosol in each well.

SMILES	number of TDP-43 monomers and dimers (IM-MS, FIG. 2) [1]	number of higher-order TDP-43 oligomers (IM-MS, FIG. 2) [1]	6mer/hexamer peak of TDP-43 peptide (IM-MS, FIG. 2) [1]	% alpha synuclein aggregation as measured on ThT [2] [%]	TDP-43 % cytosolic aggregates at 10 μM [3] [%]
CC(=O)Nc1ccc2c(c1)CCN(CCc1cccc(Cl)c1)C2 [Compound 1]	increased	decreased	depleted	77.8	34.5
CC(=O)Nc1ccc2c(c1)CCN(CCc1ccc(F)c(Cl)c1)C2 [Compound 2]	increased	decreased	depleted	95.6	10.2
